Experimental data from US4377583A, “N-Methyl-D-glucamine salt of with 3,4-dihydro-5-methyl-6-(2-methylpropyl)-4-oxothieno[2,3-d]pyrimidine-2-c arboxylic acid” (Mead Johnson & Company, priority 1981, dated 1983).
Counter-ions that a name gives are not always drawn.

How the values were obtained:
[1] = Water solubility of isolated salts of MJ 12175 (redissolution); type: physicochemical; conditions: for H2O Solubility isolated salt: room temperature (about 25° C.)
Description: (§1) Many conventional pharmaceutically acceptable amine salts of MJ 12175 are not well suited for the present use due to limited solubility, lack of stability, pH ranges differing sufficiently from physiological pH (~7.4) to the extent that irritation of tissue becomes a problem.
(§2) The amine salts of MJ 12175 shown in Table 1 were first prepared in situ by adding the amine to a suspension of MJ 12175 in a quantity of water sufficient to give a 4% aqueous solution of the resulting salt. When a precipitate formed on amine addition indicating relative insolubility, pH was not measured as in the cases of salts 4 through 8 in Table 1. Although solutions were obtained with the other salts formed in situ supersaturation of these solutions appears likely since the four salts (Nos. 2, 3, 9, 11) which were isolated were less than 4% soluble on redissolution. […] The three crystalline salts were the only examples where solid precipitated from the in situ solutions on standing. Of the three crystalline isolated amine salts of MJ 12175, the glucamine salt best meets the water solubility and pH criteria.

pH of salts of MJ 12175 = type: physicochemical; conditions: room temperature (about 25° C.)
Description: as §1, §2

[2] = Stability of aqueous solutions on extended storage
[3] = Physical state of isolated salts; type: physicochemical
Description: as §2

[4] = Water solubility of salts of MJ 12175 formed in situ (4% aqueous solution); type: physicochemical; conditions: room temperature (about 25° C.); precipitate formed on amine addition, indicating relative insolubility
Description: as §1, §2

[5] = cited from earlier work

For `Cc1c(CC(C)C)sc2nc(C(=O)O)[nH]c(=O)c12` [compound 9], the “solubility of isolated salts on redissolution” value (“solubility of isolated salts” below) ([1]; isolated salts, redissolution) was “less than 4%”, the “H2O Solubility isolated salt” value [1] was under 1000 µg/mL and the pH (pH of salts of MJ 12175) was 6.81.
Compound `Cc1c(CC(C)C)sc2nc(C(=O)O)[nH]c(=O)c12` [compound 14] has a pH (pH of salts of MJ 12175) of 9.59.
For `Cc1c(CC(C)C)sc2nc(C(=O)O)[nH]c(=O)c12` [compound 3], the “solubility of isolated salts” value ([1]; isolated salts, redissolution) was “less than 4%”, the “H2O Solubility isolated salt” value [1] was 5000 µg/mL and the pH (pH of salts of MJ 12175) was 4.7.
In the case of `Cc1c(CC(C)C)sc2nc(C(=O)O)[nH]c(=O)c12` [Salt No. 2, 3,4-Dihydro-5-methyl-6-(2-methylpropyl)-4-oxothieno[2,3-d]pyrimidine-2-carboxylic Acid N-methyl-D-glucamine Salt], the “H2O Solubility isolated salt” value [1] is reported as 12000 µg/mL, the solubility ([1]; water, isolated salts, redissolution) is reported as under 40000 µg/mL and the pH (pH of salts of MJ 12175) is reported as 6.4. The “stability of aqueous solutions” value [2] was “demonstrated the stability of its aqueous solutions on extended storage”.
With `Cc1c(CC(C)C)sc2nc(C(=O)O)[nH]c(=O)c12` [compound 13] the pH (pH of salts of MJ 12175) was 8.08.
In the case of `Cc1c(CC(C)C)sc2nc(C(=O)O)[nH]c(=O)c12` [MJ 12175, 3,4-Dihydro-5-methyl-6-(2-methylpropyl)-4-oxothieno[2,3-d]pyrimidine-2-carboxylic Acid], the “H2O Solubility isolated salt” value ([1]; listed as 1) is reported as 8900 µg/mL and the pH (pH of salts of MJ 12175; listed as 1) is reported as 11.22.
In the case of `Cc1c(CC(C)C)sc2nc(C(=O)O)[nH]c(=O)c12` [compound 11], the “solubility of isolated salts” value ([1]; isolated salts, redissolution) is reported as “less than 4%”, the pH (pH of salts of MJ 12175) is reported as 6.42 and the “physical state of isolated salt” value [3] is reported as “remained a non-crystallinetar during attempted purification”.
`Cc1c(CC(C)C)sc2nc(C(=O)O)[nH]c(=O)c12` [compound 10] gave a pH (pH of salts of MJ 12175) of 4.55.
In the case of `Cc1c(CC(C)C)sc2nc(C(=O)O)[nH]c(=O)c12` [compound 4], the “H2O Solubility in situ (ppt)” value [4] is reported as “ppt”.
In the case of `Cc1c(CC(C)C)sc2nc(C(=O)O)[nH]c(=O)c12` [compound 12], the pH (pH of salts of MJ 12175) is reported as 6.29.
In the case of `Cc1c(CC(C)C)sc2nc(C(=O)O)[nH]c(=O)c12` [potassium salt], the pH of solutions ([5]; not desirable for nasal instillation) is listed as “alkaline pH” and the water solubility ([5]; relative to MJ 12175) is listed as “improved water solubility”.
